According to ChEMBL document CHEMBL1201862, “PubChem BioAssay data set” (2004):
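Where inhibition never reached the appropriate level, the endpoint shown equals the highest concentration tested. Otherwise, values were interpolated linearly from a five-concentration, 48-hour dose response in 96-well plates. At the GI50, growth is halved.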 Calls of active or inactive are those of the source. Cut-off read from the data, not from the text of the source: active = GI50 up to about 1.1 µM and inactive = higher.

Legend:
Assay in all cases: growth of human tumour cells (NCI), 48 h
[1] = test system: HCT-116
[2] = test system: KM12
[3] = test system: SK-MEL-2
[4] = test system: LOX IMVI
[5] = test system: HOP-62
[6] = test system: IGROV-1
[7] = test system: DU-145
[8] = test system: ACHN
[9] = test system: A498
[10] = test system: SF-268
[11] = test system: MDA-MB-435
[12] = test system: SW-620
[13] = test system: EKVX
[14] = test system: Malme-3M
[15] = test system: SN12C
[16] = test system: SK-MEL-28
[17] = test system: RPMI-8226
[18] = test system: CCRF-CEM
[19] = test system: SF-539

Measured: GI50

O=C(O)/C(=C\c1ccc(O)cc1)c1cccc2ccccc12
inactive: [1] > 100 µM | [2] > 100 µM | [3] > 100 µM | [4] > 100 µM | [5] 35 µM | [6] > 100 µM | [7] > 100 µM | [8] > 100 µM | [9] > 100 µM | [10] > 100 µM | [11] > 100 µM | [12] > 100 µM | [13] 90.6 µM | [14] > 100 µM | [15] > 100 µM | [16] > 100 µM

NC(=S)N/N=C1\CCCCc2ccccc21
inactive: [1] > 10 µM | [2] > 10 µM | [3] > 10 µM | [5] > 10 µM | [7] > 10 µM | [8] > 10 µM | [10] > 10 µM | [11] > 10 µM | [12] > 10 µM | [17] > 10 µM | [18] > 10 µM | [13] > 10 µM | [14] > 10 µM | [15] > 10 µM

O=C(O)c1nc2ccc(C(F)(F)F)cc2nc1Nc1ccc(F)cc1
inactive: [1] 15.1 µM | [2] 18.6 µM | [3] 15.3 µM | [4] 18.5 µM | [5] 17.1 µM | [6] 20.7 µM | [7] 21.2 µM | [8] 21.4 µM | [9] 16.9 µM | [10] 15.5 µM | [11] 17.6 µM | [12] 23.6 µM | [13] 20.7 µM | [14] 15.4 µM | [15] 26.8 µM | [16] 37.6 µM

CC(=O)Oc1c(OC(C)C)c(C)c(O[Si](C(C)C)(C(C)C)C(C)C)c2[nH]c3ccccc3c12
inactive: [1] 63.4 µM | [2] 67.3 µM | [3] > 100 µM | [4] > 100 µM | [5] > 100 µM | [6] > 100 µM | [7] > 100 µM | [19] > 100 µM | [8] > 100 µM | [10] > 100 µM | [11] > 42.2 µM | [12] > 83.4 µM | [17] 71.1 µM | [18] 60.1 µM | [13] > 45 µM | [15] > 69 µM | [16] > 100 µM

NC1(CCNC(=O)c2ccccc2)CCN(C(=O)c2ccccc2)CC1
inactive: [1] > 100 µM | [2] > 100 µM | [3] 34.4 µM | [6] > 100 µM | [7] > 100 µM | [19] > 100 µM | [8] > 100 µM | [10] > 100 µM | [11] > 100 µM | [12] > 100 µM | [17] > 100 µM | [18] > 100 µM | [13] > 100 µM | [14] 29.2 µM | [15] > 100 µM

N#Cc1nc(C2CC2)oc1N
inactive: [1] > 100 µM | [2] 25.7 µM | [3] > 100 µM | [4] > 100 µM | [5] > 100 µM | [6] > 100 µM | [7] > 100 µM | [19] > 100 µM | [8] > 100 µM | [10] > 100 µM | [11] > 100 µM | [12] > 100 µM | [17] > 100 µM | [18] 38.4 µM | [13] > 100 µM | [14] 94.4 µM | [15] > 100 µM | [16] > 100 µM

O=C(CCc1ccccc1)ON1C(=S)C(c2ccccc2)(c2ccccc2)N=C1Sc1ccccc1
inactive: [1] 19.3 µM | [2] 32.6 µM | [3] 29.8 µM | [4] 5.52 µM | [5] 41.8 µM | [6] 6.53 µM | [7] 58.2 µM | [19] 44.6 µM | [8] 48.1 µM | [9] > 100 µM | [10] 22.7 µM | [17] 22 µM | [18] 20.3 µM | [13] 26.6 µM | [14] 48.1 µM | [15] 68.5 µM

c1ccc(C2=Nc3nc4ccccc4n3C(c3ccccc3)C2)cc1 (stereo unspecified)
inactive: [1] > 100 µM | [2] > 100 µM | [3] > 100 µM | [4] > 100 µM | [5] 36 µM | [6] > 100 µM | [19] > 100 µM | [8] > 100 µM | [9] > 100 µM | [10] > 100 µM | [11] 36 µM | [12] > 100 µM | [17] > 100 µM | [18] > 100 µM | [13] > 100 µM | [14] > 100 µM | [16] > 100 µM

COc1cc(/C=C/C(=O)CC(=O)/C=C/c2ccc(OC(=O)CCCCC3CCSS3)c(OC)c2)ccc1OC(=O)CCCCC1CCSS1 (stereo unspecified)
inactive: [1] > 100 µM | [2] > 100 µM | [3] > 100 µM | [4] > 100 µM | [5] > 100 µM | [6] > 100 µM | [7] > 100 µM | [19] > 100 µM | [8] > 100 µM | [10] > 100 µM | [11] > 100 µM | [12] > 100 µM | [17] > 100 µM | [18] > 100 µM | [13] > 100 µM | [14] > 100 µM | [15] > 100 µM | [16] > 100 µM

O=C1/C(=C/c2cccc(Cl)c2)CCCc2ccccc21
inactive: [1] 12.9 µM | [2] 17.9 µM | [3] 17.4 µM | [4] 17.8 µM | [5] 21.6 µM | [6] 15.4 µM | [7] 19.2 µM | [19] 17.9 µM | [8] 16.1 µM | [10] 16.8 µM | [11] 16.2 µM | [12] 16.9 µM | [17] 8.26 µM | [18] 10.2 µM | [13] 16.7 µM | [14] 19.1 µM | [15] 18.2 µM | [16] 17.3 µM

CCC(=O)OC1=C(c2ccccc2)Sc2ccc(Cl)cc2-n2cccc21
inactive: [2] 9.04 µM | [4] 8.65 µM | [5] > 10 µM | [6] > 10 µM | [7] > 10 µM | [10] > 10 µM | [11] 2.22 µM | [12] 7.67 µM | [17] 4.45 µM | [18] 8.89 µM | [13] > 10 µM | [14] > 10 µM | [15] 5.05 µM | [16] > 10 µM

Cc1ccc2cc3c(ccc4ccccc43)c3c2c1CC3 [3-METHYLCHOLANTHRENE]
inactive: [1] > 100 µM | [2] > 100 µM | [3] > 100 µM | [4] > 100 µM | [5] > 100 µM | [6] > 100 µM | [7] > 100 µM | [19] > 100 µM | [8] > 100 µM | [10] > 100 µM | [11] > 100 µM | [12] > 100 µM | [17] > 100 µM | [18] > 100 µM | [13] 75.5 µM | [15] > 100 µM | [16] > 100 µM
